According to patent US20220304964A1, “PARA-AMINOHIPPURIC ACID (PAH) AS A RENAL PROTECTIVE SUBSTANCE” (ITM Isotope Technologies Munich SE, priority 2019, published 2022):
Like-named read-outs stand apart in the source and are kept apart here.

Assays:
rats = conditions: Natochin et al. 1989; cited from earlier work
healthy Wistar rats [1] = assay: Kidneys uptake of [^177Lu-DOTA^o-Tyr3]-octreotide by quantitative small animal SPECT with co-infusion of kidney protection agent; format: in vivo; conditions: vs 0.9% NaCl co-infusion
Description: Imaging acquisition was performed after 0.5 h, 1 h, 4 h, 8 h, 24 h p.i.
(§1) For statistical analysis Microsoft Excel 2010 and Graphpad Prism 6.05 were employed. Data are presented as median and [25% and 75% percentile] and mean and standard deviation (SD) or standard error of mean (SEM). For comparison, ordinary one way ANOVA and Tukey's multiple comparisons test, two-sample two-tailed t-test were employed. Significance was accepted with P<0.05.

male Wistar rats = assay: Ex-vivo organ distribution of [^177Lu-DOTA^o-Tyr3]-octreotide after pre-/co-injection of NaCl, Arg-Lys or PAH; format: in vivo; conditions: 5 min and 60 min p.i., N=5, with respect to NaCl infusions
Description: All animals were pre-injected 10 min before the radiotracer injection with 1.0 mL of NaCl, Arg-Lys or PAH.
The animals were injected and sacrificed after 5 min or 60 min. Organs and tissue of interest were harvested and measured for activity. […] The average injected activity was 4.49±0.38 MBq/kg body weight (5 min) and 159±13 MBq/kg body weight (5 min) for the SPECT and 4.19±0.57 MBq/kg body weight (60 min) or 139±8 MBq/kg body weight for the SPECT animals (60 min).
as §1
The results are graphically illustrated in FIG. 5.

healthy Wistar rats [2] = assay: SPECT/CT kidney and blood (heart) radioactivity of ^177Lu-labeled DOTA compounds with co-injection of PAH or saline; format: in vivo; conditions: ^177Lu-DOTA-Affilin
Description: (§2) The tracer distribution of the radiolabeled test compounds were performed in two distinct cohorts of healthy Wistar rats with focus on the kidney uptake/clearance and blood levels. […] Each cohort comprises at least 3 rats for statistic matters.
Testing parameters were provided for each compound, RCP >95%.
The percentage of injected radioactivity present in the kidneys over time was determined according to the above protocol. The results are graphically illustrated in FIG. 6.
The percentage of injected radioactivity present in blood over time was determined according to the above protocol. The results are graphically illustrated in FIG. 7.

healthy Wistar rats [3] = assay: PET/CT kidney and blood radioactivity of ^68Ga-labeled HBED-CC-PSMA-11 with co-injection of PAH or saline; format: in vivo; conditions: PAH 200 mg/mL vs 0.9% NaCl; 0.1, 0.5, 1, 2, 4 h; FIG. 8
Description: as §2
Mice were injected with diagnostic ^68Ga-labeled PSMA-11 conjugated with acyclic chelator HBED-CC, and co-injected with PAH (200 mg/mL) or saline (0.9% NaCl) as a control. The percentage of injected radioactivity present in kidney (upper lane) and blood (lower lane) over time was determined according to the above protocol. The results are graphically illustrated in FIG. 8.

AR42J tumor mouse model = assay: Comparative biodistribution of ^177Lu-DOTATOC i.v. after i.p. PAH or saline; format: in vivo, CD1 nude mice; conditions: FIG. 9
Description: Mice (3 animals per group) were sacrificed at 0.5 h, 1 h, 2 h, and 4 h, respectively. The organs were quickly rinsed in 0.9% NaCl and dried before being weighed and counted to eliminate possible contaminating blood. […] Data from organ/tissue counting are expressed as percentage of injected dose (% ID/g)).

mice = assay: Comparative biodistribution of ^99mTc-Etarfolatide given with PAH or saline; format: in vivo; conditions: PAH IP 10 min prior + tracer diluted in PAH vs saline; after 30 min; FIG. 10
Description: 30 mice (male and female) were randomly assigned to two groups.
Group A: The mice were injected with ^99mTc Etarfolatide diluted in PAH (2.04 μg Etarfolatide/mouse) after having received an IP injection of PAH 10 min prior to radiotracer injection. Five time-points were assessed: 5 min, 30 min, 1 h, 2 h, 4 h (3 mice per time-point).
Group B: The mice were injected with ^99mTc Etarfolatide diluted in saline (2.04 μg Etarfolatide/mouse) after having received an IP injection of saline 10 min prior to radiotracer injection. Five time-points were assessed: 5 min, 30 min, 1 h, 2 h, 4 h (3 mice per time-point).

[4] = test system: Laboratory Rat (Rattus norwegicus), Lewis; assay: SPECT biodistribution of ^177Lu-PSMA I&T with kidney protection agents (PAH, Probenecid, saline); format: in vivo; conditions: for radioactivity in kidney cells (^177Lu-PSMA I&T): compared to the saline control (PAH also compared to probenecid), FIGS. 11 to 14
Source text: The protocol was executed in a way to test the radioactivity concentration of the kidneys in groups of animals injected with one TA but three different KP agents in three separate groups. Thus, the following matrix of experimental groups was formed.

[5] = low plasma concentrations (1.0 to 2.0 mg/100 mL); average; cited from earlier work
female mice = conditions: cited from earlier work
[6] = Radiolabel stability of ^99mTc-Etarfolatide (HPLC, ITLC-SG); format: physicochemical; conditions: 24 h post-preparation
Description: Radiolabeling efficiency and stability was determined using: (i) Instant thin layer chromatography-silica gel (ITLC-SG) with water (Rf of ^99mTc-Etarfolatide and free pertechnetate=0.9-1.0; Rf of colloid=0.0-0.1) and acetone (Rf of free pertechnetate=0.9-1.0; Rf of colloid and ^99mTc-Etarfolatide=0.0-0.1) as the mobile phases and (ii) RP-HPLC: Solvent A: 0.1% TFA in H2O. Solvent B: 0.1% TFA in AcCN; Gradient Elution, flow rate 1 mL/min.
On each day of experimentation, a new radiolabeling procedure was performed with approximately the same ^99mTc activity.
The volume of the radiolabeled folate was measured to be 1300 μL, while the activity was 734 MBq (Day of experimentation: March 4th). A sample corresponding to 300 MBq (i.e. 15 MBq×20 mice) was prepared. 531 μL were taken from the radiolabeled folate, which was diluted with either 1469 μL Saline or 1469 μL PAH (2000 μL 99mTc-etarfolatide, 100 μL/15 MBq per mouse). Before injection, the sample was filtered through a […] sterile filter. The injected 15 MBq/mouse corresponds to 2.04 μg Etarfolatide/mouse (injected quantity of Etarfolatide was kept stable throughout the experiment).

patients = conditions: cited from earlier work
[7] = group B (PAH) compared to group A (NaCl)
[8] = at all time points (0.5-4 h), vs saline

SMILES: C[N+](C)(C)CCO.[Cl-] [Choline chloride]
- effect on cisplatin's nephrotoxic effects (rats): reduce cisplatin's nephrotoxic effects

SMILES: Nc1ccc(C(=O)NCC(=O)O)cc1 [PAH, para-aminohippuric acid]
- kidney uptake reduction of [^177Lu-DOTA^o-Tyr3]-octreotide (healthy Wistar rats [1]; 0.5 h post injection): 50%
- kidney uptake reduction of [^177Lu-DOTA^o-Tyr3]-octreotide (healthy Wistar rats [1]; after 8 h): 56%
- kidney uptake reduction of [^177Lu-DOTA^o-Tyr3]-octreotide (healthy Wistar rats [1]; after 24 h): 50%
- ex-vivo uptake of [^177Lu-DOTA^o-Tyr3]-octreotide in the kidneys (male Wistar rats): significantly reduced the uptake in the kidneys
- kidney uptake of Affilin (healthy Wistar rats [2]; PAH 200 mg/mL vs 0.9% NaCl, versus the other compounds tested): less prominently reduced
- blood activity of Affilin (percentage of injected radioactivity in blood) (healthy Wistar rats [2]; co-injected PAH 200 mg/mL vs 0.9% NaCl, FIG. 7): significant increase of blood activity
- kidney uptake of radiolabeled compounds (percentage of injected radioactivity in kidneys) (healthy Wistar rats [2]; ^177Lu-DOTA-RGD, ^177Lu-DOTA-Sargastrin, ^177Lu-DOTA-JR11, PAH 200 mg/mL vs 0.9% NaCl, 0.5, 1, 4, 24 h, FIG. 6): significant effect in reduction of kidney uptake
- kidney uptake of ^68Ga-labeled HBED-CC conjugated PSMA-11 (healthy Wistar rats [3]): significant reduction of kidney uptake
- ^177Lu-DOTATOC uptake in kidneys (AR42J tumor mouse model; group B (PAH 20% i.p. 50 μL + ^177Lu-DOTATOC/PAH) vs group A (NaCl 0.9%), 0.5-4 h): significant decrease
- ^177Lu-DOTATOC level in blood (AR42J tumor mouse model; [7]): significantly increased
- ^177Lu-DOTATOC level in tumor (AR42J tumor mouse model; [7]): significantly increased
- renal uptake of ^99mTc-Etarfolatide (mice): decreased renal uptake
- renal cortex radioactivity (^177Lu-PSMA I&T) [4, 8]: reduced radioactivity
- renal medulla radioactivity (^177Lu-PSMA I&T) [4, 8]: reduced radioactivity
- radioactivity in kidney cells (^177Lu-PSMA I&T) [4]: marked reduction of radioactivity
- PAH cleared by the kidneys from the renal blood stream by a single circulation [5]: 90%
- intravenous LD 50 (female mice): 7.22 g/kg
- effect on cisplatin's nephrotoxic effects (rats): reduce cisplatin's nephrotoxic effects

SMILES: CCCN(CCC)S(=O)(=O)c1ccc(C(=O)O)cc1 [Probenecid]
- radioactivity in kidney cells (^177Lu-PSMA I&T) [4]: no effect

SMILES: Nc1nc2ncc(CNc3ccc(C(=O)N[C@H](CCC(=O)NC[C@@H]4[NH][99Tc]56(=[O])[S]C[C@@H](C(=O)O)[N]5C(=O)[C@H](CC(=O)O)[N]6C4=O)C(=O)O)cc3)nc2c(=O)[nH]1 [^99mTc-Etarfolatide]
- Stability of radiolabel by HPLC [6]: no loss of radiolabel

SMILES: C=C(CC)C(=O)c1ccc(OCC(=O)O)c(Cl)c1Cl [ethacrynic acid]
- effect on cisplatin's nephrotoxic effects (rats): reduce cisplatin's nephrotoxic effects

SMILES: NS(=O)(=O)c1cc(C(=O)O)c(NCc2ccco2)cc1Cl [fursosemide]
- effect on cisplatin's nephrotoxic effects (rats): reduce cisplatin's nephrotoxic effects

SMILES: NCCCC[C@H](N)C(=O)O [lysine]
- Kidney uptake reduction of radiolabeled octreotide (patients; 25 g of lysine, P<0.04): 17%+/−9%
- Kidney uptake reduction of radiolabeled octreotide (patients; 50 g of lysine, P<0.04): 15%+/−13%
- serum potassium levels (patients; 75 g of lysine (Lys75) or 25 g lysine plus 25 g arginine (LysArg)): rose significantly
- Kidney uptake reduction of radiolabeled octreotide (patients; 75 g of lysine, P<0.001): 44%+/−11%
